Experimental data reported in patent US12370192B2, “Azole-fused pyridazin-3(2H)-one derivatives” (TAKEDA PHARMACEUTICAL COMPANY LIMITED, priority 2019, dated 2025).

Key:
[1] = target: T1, human GPR139 receptor (Homo sapiens, UniProt Q6DWJ6); assay: Measurement of GPR139 Activation Via Calcium Signaling (FLIPR, T-REx-CHO cells); assay type: cell-based; conditions: T-REx-CHO cells stably expressing human GPR139, 11-point dose response, 10 μM maximum concentration, read-out: GPR139 Potency (pEC50) (converted)
T1 construct: expressed in transfected cells; host or cells: T-REx-CHO (Thermo Fisher Scientific), doxycycline-induced
T1 sequence (Q6DWJ6 1-353): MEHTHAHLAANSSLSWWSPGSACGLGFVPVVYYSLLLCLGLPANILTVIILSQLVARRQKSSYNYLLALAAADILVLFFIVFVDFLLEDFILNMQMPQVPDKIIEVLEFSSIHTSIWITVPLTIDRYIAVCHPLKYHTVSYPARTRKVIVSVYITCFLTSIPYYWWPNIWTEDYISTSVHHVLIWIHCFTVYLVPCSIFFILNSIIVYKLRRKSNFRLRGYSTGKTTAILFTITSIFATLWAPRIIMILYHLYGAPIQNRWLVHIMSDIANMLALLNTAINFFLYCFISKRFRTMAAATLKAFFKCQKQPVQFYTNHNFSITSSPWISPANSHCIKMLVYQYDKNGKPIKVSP
Experimental: Measurement of GPR139 Activation Via Calcium Signaling
This cell-based assay measures the ability of compounds to activate GPR139 in stably transfected T-REx™-CHO cells. T-REx™-CHO cells (Thermo Fisher Scientific®) are stably expressed with human GPR139 receptor, whose expression is controlled by a tetracycline-inducible element. The cells are cultured in medium containing F-12K nutrient mixture-Kaighn's modification, TripleLE™ Express (1×)-phenol red, Dulbecco's phosphate-buffered saline (1×), 10% tetracycline-free FBS, Blasticidin S HCl (10 μg/mL) and Hygromycin B (200 μg/mL). The cells are introduced into the wells of a 384-well black clear bottom plate (Costar®) at 10,000 cells/well. GPR139 receptor expression is induced with 2 μg/mL doxycycline (Sigma D9891). The plate is allowed to stand at room temperature for 10-30 minutes and then incubated at 37° C. and 5% CO2 for 17 hours prior to assay.
Culture media is removed from cells and 45 μL of 1× calcium dye (2.5 mM) is added to each well and incubated at 37° C. and 5% CO2 for 40 minutes. The plate is removed from the incubator and allowed to stand at RT for 20 minutes without a plate cover prior to measurement of calcium signaling. The calcium dye is prepared by adding 10 mL of assay buffer (Hank's Balanced Salt Solution (1×), 1 mM HEPES at pH 7.4) to one vial of calcium dye (FLIPR® Calcium 5 Assay Kit; Molecular Devices) at room temperature, vortexing the mixture until homogenous, and transferring the dye to a 250 mL flask using 10 mL of assay, buffer to rinse the vial. The dye is subsequently transferred to a conical flask, which is filled to the 200 mL mark with assay buffer, and 1 mL of […] probenecid solution (142.68 mg/mL in 1M NaOH aq) is added.
Example compounds suspended in DMSO are received from compound management in microtiter plates (0.25 μL/well) and are diluted in assay buffer (25 μL). Following incubation of the cell plate, the Example compounds are added to the cells (11-point dose response, 10 μM maximum concentration) using a FLIPR® Tetra system (Molecular Devices) and fluorescence is measured continuously for 1 minute. EC50 curves are generated with a four-parameter logistic equation using GraphPad Prism® 6, and activation of GPR139 for each example compound is reported as pEC50.

[2] = target: T1, human GPR139 receptor; assay: GPR139 Competition Binding (membrane-based, tritium-labeled ligand); conditions: T-REx-CHO membranes with human GPR139; 6.5 nM tritium-labeled ligand; 11-point curve, 30 μM maximum concentration; read-out: GPR139 Binding Affinity (pKi) (converted)
Experimental: OPR139 Competition Binding
This membrane-based assay measures the ability of compounds to competitively bind GPR139 in stably transfected TREx™-CHO membranes. To prepare the membranes, T-REx™-CHO (Thermo Fisher Scientific®) cells are stably expressed with human GPR139 receptor, whose expression is controlled by a tetracycline-inducible element. The cells are cultured in medium containing F-12K nutrient mixture-Kaighn's modification, 10% tetracycline-free FBS, Blasticidin S HCl (10 μg/mL) and Hygromycin B (200 μg/mL). GPR139 receptor expression is induced for 18 hours with 2 μg/mL doxycycline (Sigma D9891) in growth media. After addition of doxycycline, cells are harvested in PBS and pelleted by centrifugation for 5 minutes at 200×G. Liquid is aspirated off and cells are resuspended in ice cold lysis buffer (20 mM HEPES/5 mM EDTA pH 7.4/1× Roche® protease inhibitor). Samples are vortexed until homogenous and then placed on ice and homogenized using a Dounce homogenizer at 50% power (3 cycles, 10 strokes per cycle). Lysate is centrifuged at 4° C. for 10 minutes in a tabletop Sorvall® centrifuge at 2000×G. The supernatant is recovered and centrifuged in a Sorvall® ultracentrifuge at 35,000 rpm for 30 minutes at 4° C. The supernatant is discarded, and the remaining pellet resuspended in lysis buffer (20 mM HEPES/0.1 mM EGTA/Roche® protease inhibitor). Membrane protein concentration is determined using Thermo Fisher® BCA quantification kit and is aliquoted into microtubes. Tubes are snap frozen in liquid nitrogen and stored at −80° C. Prior to use, the membranes are removed from cold storage, thawed to room temperature, vortexed until homogenous and diluted in assay buffer (20 mM HEPES pH 7.3, 5 mM MgCl2, 1 mM CaCl2), 1× Thermo Scientific® Halt™ protease inhibitor (78429)).
The assay is run in 96-well, polypropylene, v-bottom plates (Greiner Bio-One® 651201). Test compound in DMSO is added to the wells of each plate (11-point dose response curve, 30 μM maximum concentration, 3-fold serial dilution). A fixed amount of tritium-labeled ligand, (S)-2-(2,3-dimethyl-7-oxothieno[2,3-d]pyridazin-6(7H)-yl)-N-(1-(4-methoxyphenyl-2-t)propan-2-yl)acetamide (Quotient Bioresearch) in assay buffer (6.5 nM assay concentration) is added to each well of the assay plate, which is then agitated on a plate shaker for 30 seconds. Next, a fixed amount of membranes in assay buffer (2 μg membranes) is added to each well of the assay plate, which is then spun for 30 seconds at 300 rpm in a tabletop Eppendorf centrifuge, and then incubated at room temperature for 20 minutes. Using a Tomtec harvester, the contents of the assay plate are transferred to Filtermat A (PerkinElmer® No. 1450-421) which prior to use is pre-soaked in 0.5% PEI (Sigma P3143) for 3 hours and dried at room temperature overnight. Following transfer, the Filtermat is washed 5 times with cold wash buffer (20 mM HEPES pH 7.3, 100 mM NaCl). The Filtermat is dried using a microwave oven and placed in a sample bag (PerkinElmer® No. 1450-432) with a scintillator sheet (PerkinElmer® No. 1450-411). The scintillator sheet is melted to the Filtermat using a heat block set to 65° C., placed in a MicroBeta® cartridge and read using a MicroBeta® scintillation counter. Binding curves are generated with a four-parameter logistic equation using GraphPad Prism® 6 and the inhibition constant Ki is reported as pKi.

EC50 [1] [µM]	Ki [2] [µM]	Structure (SMILES)
0.224	0.0933	Cc1nn(CC(=O)N[C@@H](C)c2ccc(OC(F)(F)F)cc2)c(=O)c2c1cnn2-c1ccccc1 [Example 5, (S)-2-(4-methyl-7-oxo-1-phenyl-1,7-dihydro-6H-pyrazolo[3,4-d]pyridazin-6-yl)-N-(1-(4-(trifluoromethoxy)phenyl)ethyl)acetamide]
0.0513	0.0759	Cc1ccc([C@H](C)NC(=O)Cn2ncc3c(c(C(F)(F)F)nn3C)c2=O)cc1 [Example 169, (S)-2-(1-methyl-4-oxo-3-(trifluoromethyl)-1,4-dihydro-5H-pyrazolo[3,4-d]pyridazin-5-yl)-N-(1-(p-tolyl)ethyl)acetamide]
0.0251	0.00214	Cc1ccc([C@H](C)NC(=O)Cn2ncc3c(c(C)cn3C3CC3)c2=O)cc1F [Example 62, (S)-2-(1-cyclopropyl-3-methyl-4-oxo-1,4-dihydro-5H-pyrrolo[2,3-d]pyridazin-5-yl)-N-(1-(3-fluoro-4-methylphenyl)ethyl)acetamide]
0.0575	0.0479	Cc1ccc([C@H](C)NC(=O)Cn2ncc3c(C4CC4)cn(C)c3c2=O)cc1 [Example 158, (S)-2-(3-cyclopropyl-1-methyl-7-oxo-1,7-dihydro-6H-pyrrolo[2,3-d]pyridazin-6-yl)-N-(1-(p-tolyl)ethyl)acetamide]
0.0214	0.49	Cc1nn(CC(=O)N[C@@H](C)c2cccc(F)c2)c(=O)c2c1c(C)nn2C [Example 154, (S)—N-(1-(3-fluorophenyl)ethyl)-2-(1,3,4-trimethyl-7-oxo-1,7-dihydro-6H-pyrazolo[3,4-d]pyridazin-6-yl)acetamide]
0.0513	0.0347	Cc1cn(C2CC2)c2cnn(CC(=O)N[C@@H](C)c3ccccc3)c(=O)c12 [Example 146, (S)-2-(1-cyclopropyl-3-methyl-4-oxo-1,4-dihydro-5H-pyrrolo[2,3-d]pyridazin-5-yl)-N-(1-phenylethyl)acetamide]
≥ 10	0.162	CC(C)c1nn(CC(=O)N[C@@H](C)c2ccc(OC(F)(F)F)cc2)c(=O)c2c1cnn2-c1ccccc1 [Example 7, (S)-2-(4-isopropyl-7-oxo-1-phenyl-1,7-dihydro-6H-pyrazolo[3,4-d]pyridazin-6-yl)-N-(1-(4-(trifluoromethoxy)phenyl)ethyl)acetamide]
0.0692	0.000447	Cc1ccc([C@H](C)NC(=O)Cn2nc(C)c3c(C)nn(C4CC4)c3c2=O)c(F)c1 [Example 69, (S)-2-(1-cyclopropyl-3,4-dimethyl-7-oxo-1,7-dihydro-6H-pyrazolo[3,4-d]pyridazin-6-yl)-N-(1-(2-fluoro-4-methylphenyl)ethyl)acetamide]
0.0851	0.00389	COc1cc(Cl)ccc1C[C@H](C)NC(=O)Cn1ncc2c(c(C)cn2C2CC2)c1=O [Example 67, (S)—N-(1-(4-chloro-2-methoxyphenyl)propan-2-yl)-2-(1-cyclopropyl-3-methyl-4-oxo-1,4-dihydro-5H-pyrrolo[2,3-d]pyridazin-5-yl)acetamide]
≥ 10	0.0724	Cc1ccc([C@H](C)NC(=O)Cn2nc(C(C)C)c3cnn(-c4ccccc4)c3c2=O)cc1 [Example 3, (S)-2-(4-isopropyl-7-oxo-1-phenyl-1,7-dihydro-6H-pyrazolo[3,4-d]pyridazin-6-yl)-N-(1-(p-tolyl)ethyl)acetamide]
0.129	0.0741	COc1ccc([C@H](C)NC(=O)Cn2nc(C)c3c(c(C4CC4)nn3C)c2=O)cc1 [Example 121, (S)-2-(3-cyclopropyl-1,7-dimethyl-4-oxo-1,4-dihydro-5H-pyrazolo[3,4-d]pyridazin-5-yl)-N-(1-(4-methoxyphenyl)ethyl)acetamide]
0.0295	0.0891	COc1ccc([C@H](C)NC(=O)Cn2ncc3c(c(C)cn3C3CC3)c2=O)cc1 [Example 145, (S)-2-(1-cyclopropyl-3-methyl-4-oxo-1,4-dihydro-5H-pyrrolo[2,3-d]pyridazin-5-yl)-N-(1-(4-methoxyphenyl)ethyl)acetamide]
0.0794	0.000794	Cc1cn(C2CC2)c2cnn(CC(=O)N[C@@H](C)c3ccc(F)cc3Cl)c(=O)c12 [Example 66, (S)—N-(1-(2-chloro-4-fluorophenyl)ethyl)-2-(1-cyclopropyl-3-methyl-4-oxo-1,4-dihydro-5H-pyrrolo[2,3-d]pyridazin-5-yl)acetamide]
0.00851	0.105	C[C@H](NC(=O)Cn1ncc2ccn(C)c2c1=O)c1ccc(Cl)cc1 [Example 161, (S)—N-(1-(4-chlorophenyl)ethyl)-2-(1-methyl-7-oxo-1,7-dihydro-6H-pyrrolo[2,3-d]pyridazin-6-yl)acetamide]
0.0331	0.00759	Cc1ccc([C@H](C)NC(=O)Cn2ncc3c(c(C)cn3C3CC3)c2=O)cc1 [Example 147, (S)-2-(1-cyclopropyl-3-methyl-4-oxo-1,4-dihydro-5H-pyrrolo[2,3-d]pyridazin-5-yl)-N-(1-(p-tolyl)ethyl)acetamide]
0.0257	0.933	COc1ccc([C@H](C)NC(=O)Cn2ncc3c(c(C)nn3C3CC3)c2=O)c(F)c1 [Example 127, (S)-2-(1-cyclopropyl-3-methyl-4-oxo-1,4-dihydro-5H-pyrazolo[3,4-d]pyridazin-5-yl)-N-(1-(2-fluoro-4-methoxyphenyl)ethyl)acetamide]
